Results taken from ChEMBL document CHEMBL1833836, “Synthesis and evaluation of phosphoramidate and phosphorothioamidate analogues of amiprophos methyl as potential antimalarial agents” (Bioorg Med Chem Lett, 2011).
Active and inactive are the calls of the source. The calls are words filed in the database; no cut-off is given here.

Experiments:
[1] = system: Plasmodium falciparum; assay: Antimalarial activity against Plasmodium falciparum 3D7 infected in O-positive human erythrocytes assessed as inhibition of parasite lactate dehydrogenase after 72 hrs by pLDH method; type: functional, organism-based; conditions: 3D7, 72 h
[2] = system: Plasmodium falciparum; assay: Ratio of compound IC50 to APM IC50 for Plasmodium falciparum 3D7; type: functional
[3] = system: Plasmodium falciparum; assay: Antimicrobial activity against Plasmodium falciparum; type: functional, organism-based
[4] = system: Cryptosporidium parvum; assay: Antimicrobial activity against Cryptosporidium parvum infected in HCT8 cells assessed as parasite count after 72 to 120 hrs; type: functional, organism-based; conditions: HCT-8
[5] = system: Plasmodium falciparum; assay: Antimicrobial activity against Plasmodium falciparum up to 128 uM; type: functional, organism-based

Question: CCOP(=S)(NC1CCCC1)Oc1ccc([N+](=O)[O-])cc1C (stereo unspecified) was tested. Which IC50 [1] did it give?
Answer: 1.6 µM

Question: How did the IC50 [1] turn out when CCOP(=S)(NC1CCCC1)Oc1ccc(Br)cc1 (stereo unspecified) was run?
Answer: 23 µM

Question: How did the “Ratio IC50” value [2] turn out when CCOP(=O)(NC(C)C)Oc1cc(C)ccc1[N+](=O)[O-] (stereo unspecified) was run?
Answer: 20

Question: What about the IC50 [1] of the same compound?
Answer: > 128 µM

Question: What does the source list for CCOP(=O)(NCC(C)C)Oc1ccc(C)cc1[N+](=O)[O-] (stereo unspecified)?
Answer: Ratio IC50 [2]: 20; IC50 [1]: 75 µM

Question: CCOP(=O)(NC1CCCCC1)Oc1ccc(C(F)(F)F)cc1 (stereo unspecified) was tested. Which “Ratio IC50” value [2] did it give?
Answer: 20

Question: And the IC50 [1]?
Answer: 43 µM

Question: With CCOP(=O)(Oc1ccc(C(F)(F)F)cc1)N1CCOCC1 (stereo unspecified) as the compound, how does the “Ratio IC50” value [2] read?
Answer: 20

Question: And the IC50 [1]?
Answer: 98 µM

Question: Which results are given for CCCCNP(=O)(OCC)Oc1ccc(C)cc1[N+](=O)[O-] (stereo unspecified)?
Answer: Ratio IC50 [2]: 20; IC50 [1]: 28 µM

Question: Which results are given for CCOP(=O)(Oc1ccc(C(F)(F)F)cc1)N1CCCC1 (stereo unspecified)?
Answer: Ratio IC50 [2]: 20; IC50 [1]: 56 µM

Question: What does the source list for CCOP(=O)(Nc1ccc(C)cc1Cl)Oc1ccc(C)cc1Cl (stereo unspecified)?
Answer: Ratio IC50 [2]: 20; IC50 [1]: 102 µM

Question: With CCOP(=O)(NC(C)C)Oc1ccc(C)cc1OC (stereo unspecified) as the compound, how does the “Ratio IC50” value [2] read?
Answer: 20

Question: And the IC50 [1]?
Answer: 128 µM

Question: Which results are given for CCOP(=S)(NC1CCCC1)Oc1ccc(C(F)(F)F)cc1 (stereo unspecified)?
Answer: Ratio IC50 [2]: 20; IC50 [1]: 8.6 µM

Question: Which “Ratio IC50” value [2] does the source give for CCOP(=O)(NC(C)C)Oc1ccc2ccccc2c1[N+](=O)[O-] (stereo unspecified) here?
Answer: 20

Question: And the IC50 [1]?
Answer: 87 µM

Question: Which results are given for CCOP(=O)(NCC(C)C)Oc1ccc(C(F)(F)F)cc1 (racemic)?
Answer: Ratio IC50 [2]: 20; IC50 [1]: 40 µM

Question: For CCCNP(=O)(OCC)Oc1cc(C)ccc1[N+](=O)[O-] (stereo unspecified), which “Ratio IC50” value [2] is on record?
Answer: 20

Question: And the IC50 [1]?
Answer: 102 µM

Question: How did the IC50 [3] turn out when O=[N+]([O-])c1cc([N+](=O)[O-])c(N2CCC(N3CCCC3)CC2)c(C(F)(F)F)c1 was run?
Answer: 0.44 µM

Question: For CCCN(CCC)c1c([N+](=O)[O-])cc(C(F)(F)F)cc1[N+](=O)[O-] [TRIFLURALIN], which IC50 [3] is on record?
Answer: 2.9 µM

Question: What about the IC50 [4] of the same compound?
Answer: 0.75 µM

Question: For CCCN(CCC)c1c([N+](=O)[O-])cc(S(N)(=O)=O)cc1[N+](=O)[O-] [ORYZALIN], which IC50 [4] is on record?
Answer: 0.8 µM

Question: Which IC50 [1] does the source give for COP(=S)(NC(C)C)Oc1ccc(C)cc1[N+](=O)[O-] (stereo unspecified) [AMIPROPHOS METHYL] here?
Answer: 4 µM

Question: What does the source list for CCOP(N)(=O)Oc1ccc(C(F)(F)F)cc1 (stereo unspecified)?
Answer: Ratio IC50 [2]: 20; IC50 [1]: 79 µM

Question: With CCN(CC)CCN(CC)c1c([N+](=O)[O-])cc([N+](=O)[O-])cc1C(F)(F)F as the compound, how does the IC50 [3] read?
Answer: 0.44 µM

Question: Which “Ratio IC50” value [2] does the source give for CCOP(=O)(NC(C)C)Oc1ccc([N+](=O)[O-])cc1C (stereo unspecified) here?
Answer: 20

Question: And the IC50 [1]?
Answer: 128 µM

Question: CCOP(=O)(NC(C)C)Oc1ccc(C)cc1C#N (stereo unspecified) was tested. Which “Ratio IC50” value [2] did it give?
Answer: 20

Question: And the IC50 [1]?
Answer: 128 µM

Question: With CCOP(=O)(NC(C)C)Oc1cc([N+](=O)[O-])ccc1C (stereo unspecified) as the compound, how does the “Ratio IC50” value [2] read?
Answer: 20

Question: What about the IC50 [1] of the same compound?
Answer: 128 µM

Question: Which “Ratio IC50” value [2] does the source give for CCOP(=O)(NC1CCC1)Oc1ccc(C(F)(F)F)cc1 (stereo unspecified) here?
Answer: 20

Question: What about the IC50 [1] of the same compound?
Answer: 45 µM

Question: With CCOP(=O)(NC(C)C)Oc1ccccc1C(F)(F)F (stereo unspecified) as the compound, how does the “Ratio IC50” value [2] read?
Answer: 20

Question: What about the IC50 [1] of the same compound?
Answer: 87 µM

Question: For CCOP(=O)(NC(C)C)Oc1ccc2ccccc2c1 (stereo unspecified), which “Ratio IC50” value [2] is on record?
Answer: 20

Question: What about the IC50 [1] of the same compound?
Answer: 72 µM

Question: Which results are given for CCOP(=O)(NC(C)C)Oc1ccccc1 (stereo unspecified)?
Answer: Ratio IC50 [2]: 20; IC50 [1]: > 128 µM

Question: For CCCCCNP(=S)(OCC)Oc1ccc([N+](=O)[O-])cc1C (stereo unspecified), which IC50 [1] is on record?
Answer: 6.9 µM

Question: For CCCCCNP(=S)(OCC)Oc1ccc(C(F)(F)F)cc1 (stereo unspecified), which IC50 [1] is on record?
Answer: 4.5 µM

Question: For CCOP(=O)(NC(C)C)Oc1cccc([N+](=O)[O-])c1C (stereo unspecified), which “Ratio IC50” value [2] is on record?
Answer: 20

Question: What about the IC50 [1] of the same compound?
Answer: 128 µM

Question: What does the source list for CCOP(=O)(NC(C)C)Oc1ccc(C)cc1[N+](=O)[O-] (stereo unspecified)?
Answer: Ratio IC50 [2]: 20; IC50 [1]: 126 µM

Question: Which “Ratio IC50” value [2] does the source give for CCOP(=O)(Oc1ccc(C(F)(F)F)cc1)N(CC)CC (stereo unspecified) here?
Answer: 20

Question: And the IC50 [1]?
Answer: 48 µM

Question: For CCOP(=O)(NC1CCCC1)Oc1ccc(C(F)(F)F)cc1 (stereo unspecified), which “Ratio IC50” value [2] is on record?
Answer: 20

Question: What about the IC50 [1] of the same compound?
Answer: 26 µM

Question: How did the “Ratio IC50” value [2] turn out when CCCCCNP(=O)(OCC)Oc1ccc(C)cc1[N+](=O)[O-] (stereo unspecified) was run?
Answer: 20

Question: What about the IC50 [1] of the same compound?
Answer: 51 µM

Question: Which results are given for CCOP(=O)(NC(C)C)Oc1ccc(C)cc1Br (stereo unspecified)?
Answer: Ratio IC50 [2]: 20; IC50 [1]: 39 µM

Question: Which results are given for CCOP(=O)(NCC(C)C)Oc1cc(C)ccc1[N+](=O)[O-] (stereo unspecified)?
Answer: Ratio IC50 [2]: 20; IC50 [1]: > 128 µM

Question: With CCOP(=O)(NC(C)C)Oc1ccc(C(F)(F)F)cc1 (stereo unspecified) as the compound, how does the “Ratio IC50” value [2] read?
Answer: 20

Question: What about the IC50 [1] of the same compound?
Answer: 50 µM

Question: What does the source list for CCOP(=O)(NC1CCCC1)Oc1ccc(C)cc1[N+](=O)[O-] (stereo unspecified)?
Answer: Ratio IC50 [2]: 20; IC50 [1]: 47 µM

Question: Which “Ratio IC50” value [2] does the source give for CCCCCCCNP(=O)(OCC)Oc1ccc(C(F)(F)F)cc1 (stereo unspecified) here?
Answer: 20

Question: What about the IC50 [1] of the same compound?
Answer: 44 µM

Question: With CCOP(=O)(NC1CCCC1)Oc1ccc(Br)cc1 (stereo unspecified) as the compound, how does the “Ratio IC50” value [2] read?
Answer: 20

Question: What about the IC50 [1] of the same compound?
Answer: 17 µM

Question: What does the source list for CCOP(=O)(NC(C)C)Oc1cccc(C(F)(F)F)c1 (stereo unspecified)?
Answer: Ratio IC50 [2]: 20; IC50 [1]: 50 µM

Question: Which “Ratio IC50” value [2] does the source give for CCOP(=O)(Oc1ccc(C(F)(F)F)cc1)N1CCCCC1 (stereo unspecified) here?
Answer: 20

Question: And the IC50 [1]?
Answer: 84 µM

Question: For CCOP(=O)(NC(C)C)Oc1ccc(C)cc1Cl (stereo unspecified), which “Ratio IC50” value [2] is on record?
Answer: 20

Question: And the IC50 [1]?
Answer: 39 µM

Question: CC(C)OC(=O)Nc1cccc(Cl)c1 was tested. Which inhibition [5] did it give?
Answer: inactive

Question: Which results are given for CCCNP(=O)(OCC)Oc1ccc(C)cc1[N+](=O)[O-] (stereo unspecified)?
Answer: Ratio IC50 [2]: 20; IC50 [1]: > 128 µM

Question: How did the IC50 [1] turn out when CCOP(NC1CCCC1)Oc1ccc(Br)cc1 (stereo unspecified) was run?
Answer: 128 µM

Question: For CCCCNP(=O)(OCC)Oc1ccc(C(F)(F)F)cc1 (stereo unspecified), which “Ratio IC50” value [2] is on record?
Answer: 20

Question: What about the IC50 [1] of the same compound?
Answer: 32 µM

Question: What does the source list for CCOP(=O)(NC(C)C)Oc1ccc([N+](=O)[O-])c(C)c1 (stereo unspecified)?
Answer: Ratio IC50 [2]: 20; IC50 [1]: 79 µM
